Legend:
Assay in all cases: relative viability (nuclei count vs DMSO), 5 days (fraction); higher = more cells survive
MLN4924 + Alpelisib = compound: NS(=O)(=O)OC[C@@H]1C[C@@H](n2ccc3c(N[C@H]4CCc5ccccc54)ncnc32)C[C@@H]1O [MLN4924] + Cc1nc(NC(=O)N2CCC[C@H]2C(N)=O)sc1-c1ccnc(C(C)(C)C(F)(F)F)c1 [Alpelisib] (partner 2 µM)
In short: (§1)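 Cells from lung cancer lines were seeded into 1536-well plates and, one day later, dosed by pin tool. Treatments were either a single drug or a fixed dose of an anchor drug with five library-drug doses (not always all listed) in √10 steps. After 5 days, nuclei were stained in a one-step fixation (final 0.05% Triton X-100, 1% formaldehyde, 1 ug/ml Hoechst) and counted on 4× images, and relative viability is the treated-to-vehicle nuclei ratio, as the median of duplicate plates.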

Carboplatin + Trametinib = compound: C1CC(C1)(C(=O)O)C(=O)O.[NH2-].[NH2-].[Pt+2] [Carboplatin] + CC(=O)Nc1cccc(-n2c(=O)n(C3CC3)c(=O)c3c(Nc4ccc(I)cc4F)n(C)c(=O)c(C)c32)c1 [Trametinib] (partner 0.02 µM)
In short: as §1

Carboplatin + Pemetrexed = compound: C1CC(C1)(C(=O)O)C(=O)O.[NH2-].[NH2-].[Pt+2] [Carboplatin] + Nc1nc2[nH]cc(CCc3ccc(C(=O)N[C@@H](CCC(=O)O)C(=O)O)cc3)c2c(=O)[nH]1 [Pemetrexed] (partner 0.2 µM)
In short: as §1

MLN4924 + Decitabine = compound: NS(=O)(=O)OC[C@@H]1C[C@@H](n2ccc3c(N[C@H]4CCc5ccccc54)ncnc32)C[C@@H]1O [MLN4924] + Nc1ncn([C@H]2C[C@H](O)[C@@H](CO)O2)c(=O)n1 [Decitabine] (partner 2 µM)
In short: as §1

Row | Cell Line | relative viability (MLN4924 + Alpelisib; first compound 0.04 µM) | relative viability (MLN4924 + Alpelisib; first compound 0.1265 µM) | relative viability (MLN4924 + Alpelisib; first compound 0.4 µM) | relative viability (MLN4924 + Alpelisib; first compound 1.265 µM) | relative viability (MLN4924 + Alpelisib; first compound 4 µM) | relative viability (Carboplatin + Trametinib; first compound 0.08 µM) | relative viability (Carboplatin + Trametinib; first compound 0.253 µM) | relative viability (Carboplatin + Trametinib; first compound 0.8 µM) | relative viability (Carboplatin + Trametinib; first compound 2.53 µM) | relative viability (Carboplatin + Trametinib; first compound 8 µM) | relative viability (Carboplatin + Pemetrexed; first compound 0.08 µM) | relative viability (Carboplatin + Pemetrexed; first compound 0.253 µM) | relative viability (Carboplatin + Pemetrexed; first compound 0.8 µM) | relative viability (Carboplatin + Pemetrexed; first compound 2.53 µM) | relative viability (Carboplatin + Pemetrexed; first compound 8 µM) | relative viability (MLN4924 + Decitabine; first compound 0.04 µM) | relative viability (MLN4924 + Decitabine; first compound 0.1265 µM) | relative viability (MLN4924 + Decitabine; first compound 0.4 µM) | relative viability (MLN4924 + Decitabine; first compound 1.265 µM) | relative viability (MLN4924 + Decitabine; first compound 4 µM)
1 | NCI-H1703 | 0.22 | 0.177 | 0.189 | 0.135 | 0.121 |  |  |  |  |  |  |  |  |  |  |  |  |  |  | 
2 | NCI-H1793 | 0.804 | 0.801 | 0.732 | 0.513 | 0.276 | 0.39 | 0.455 | 0.48 | 0.386 | 0.431 | 1.1 | 0.908 | 0.918 | 0.866 | 0.93 | 0.49 | 0.463 | 0.482 | 0.318 | 0.195
3 | NCI-H522 |  |  |  |  |  | 0.724 | 0.876 | 0.632 | 0.781 | 0.762 | 0.814 | 0.924 | 1.11 | 1.01 | 0.913 | 0.626 | 0.598 | 0.571 | 0.401 | 0.406
4 | LOU-NH91 | 0.804 | 1.02 | 0.855 | 0.407 | 0.476 | 0.786 | 0.792 | 0.763 | 0.803 | 0.775 | 0.348 | 0.378 | 0.372 | 0.381 | 0.378 | 0.793 | 0.797 | 0.684 | 0.557 | 0.523
5 | NCI-H1355 | 0.831 | 0.865 | 0.776 | 0.35 | 0.152 | 0.45 | 0.438 | 0.474 | 0.403 | 0.367 | 1.06 | 1.1 | 1.09 | 1 | 0.892 | 0.367 | 0.307 | 0.321 | 0.215 | 0.184
6 | NCI-H441 | 0.549 | 0.526 | 0.296 | 0.123 | 0.168 | 0.556 | 0.448 | 0.479 | 0.467 | 0.371 | 0.289 | 0.258 | 0.271 | 0.243 | 0.241 | 0.253 | 0.241 | 0.22 | 0.158 | 0.175
7 | NCI-H1395 | 1.05 | 0.812 | 0.553 | 0.343 | 0.365 | 1.05 | 1.03 | 1.01 | 0.742 | 0.618 | 1.02 | 0.983 | 0.814 | 0.61 | 0.534 | 0.704 | 0.596 | 0.461 | 0.359 | 0.346
8 | NCI-H2023 | 0.731 | 0.528 | 0.224 | 0.0584 | 0.0729 | 0.599 | 0.633 | 0.542 | 0.343 | 0.163 | 0.248 | 0.209 | 0.196 | 0.15 | 0.152 | 0.177 | 0.178 | 0.119 | 0.0603 | 0.062
9 | NCI-H1666 | 1.18 | 0.832 | 0.432 | 0.148 | 0.205 | 0.914 | 0.848 | 0.85 | 0.813 | 0.787 | 0.876 | 0.857 | 0.845 | 0.846 | 0.819 | 0.699 | 0.622 | 0.417 | 0.393 | 0.389

— the supplement of paper PMC10307832
